Results as given in US11111247B2, “Pyrazolopyrimidine compounds and uses thereof” (Incyte Corporation, priority 2018, dated 2021).
pIC50: −log10 of the molar value. Where two headings read alike, the source gives them in different places.

What was measured:
ALK2 (aa 147-end) = ALK2 (aa 147-end) (Homo sapiens (Human), UniProt Q04771); assay: ALK2 HTRF Assay; type: biochemical
FGFR3 = FGFR3 (Homo sapiens, UniProt P22607); assay: pFGFR3 Functional Cell HTRF Assay (BAF3-TEL-FGFR3 cells); type: cell-based; conditions: 2 hours
Chain of FGFR3 (P22607 23-806 limits assumed): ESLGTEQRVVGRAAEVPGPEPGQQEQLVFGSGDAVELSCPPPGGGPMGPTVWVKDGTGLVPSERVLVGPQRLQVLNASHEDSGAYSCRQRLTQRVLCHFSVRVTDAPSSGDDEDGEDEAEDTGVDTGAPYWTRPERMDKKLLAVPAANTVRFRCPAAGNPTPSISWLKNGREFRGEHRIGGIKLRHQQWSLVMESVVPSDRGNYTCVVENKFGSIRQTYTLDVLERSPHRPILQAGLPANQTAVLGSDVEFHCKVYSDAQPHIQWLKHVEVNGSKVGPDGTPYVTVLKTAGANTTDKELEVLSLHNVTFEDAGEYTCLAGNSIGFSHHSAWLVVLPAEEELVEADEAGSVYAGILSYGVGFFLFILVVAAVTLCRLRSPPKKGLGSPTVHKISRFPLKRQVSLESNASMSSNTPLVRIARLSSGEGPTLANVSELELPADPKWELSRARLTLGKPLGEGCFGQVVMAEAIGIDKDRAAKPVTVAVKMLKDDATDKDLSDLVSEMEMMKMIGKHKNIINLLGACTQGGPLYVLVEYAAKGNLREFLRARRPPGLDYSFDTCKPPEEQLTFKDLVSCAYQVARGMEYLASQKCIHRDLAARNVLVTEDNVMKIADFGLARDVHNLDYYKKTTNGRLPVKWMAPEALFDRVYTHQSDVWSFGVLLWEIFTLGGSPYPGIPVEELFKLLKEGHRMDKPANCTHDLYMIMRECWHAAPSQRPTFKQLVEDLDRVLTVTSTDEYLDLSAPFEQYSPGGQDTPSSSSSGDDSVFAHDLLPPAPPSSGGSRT
Description: To measure phosphorylated Fibroblast Growth Factor Receptor 1 and 3 (FGF1 and FGFR3), in house stable cell lines BAF3-TEL-FGFR1 or BAF3-TEL-FGFR3 were maintained in RPMI with 10% FBS and 1 μg/ml puromycin (Gibco/Life Technologies). […] The plates were gently shaken (100 rpm) for 2 minutes at room temperature to mix well and incubated for 2 hours in a single layer at 37° C., 5% CO2. 4 μl/well of 1/25 dilution of lysis buffer #3 (Cis Bio) was added with standard Protease inhibitors and shaken at 200 rpm at room temperature for 20 minutes. 4 μl total of the Cis Bio Tb-pFGFR Ab (10 ng) and d2-FGFR3 (1 ng) together were added to the lysate and mixed well. Plates were sealed and incubated at room temperature overnight in the dark. […] IC50 determination was performed by fitting the curve of inhibitor percent inhibition versus the log of the inhibitor concentration using the GraphPad Prism 5.0 software.

FGFR2 (P) = FGFR2 (P) (Homo sapiens (Human), UniProt P21802); assay: FGFR Enzymatic Assay, FGFR2 phosphorylated; conditions: phosphorylated enzyme, ATP near or below Km; for pIC50: read-out: FGFR2 (P) IC50
Chain of FGFR2 (P) (P21802 22-821): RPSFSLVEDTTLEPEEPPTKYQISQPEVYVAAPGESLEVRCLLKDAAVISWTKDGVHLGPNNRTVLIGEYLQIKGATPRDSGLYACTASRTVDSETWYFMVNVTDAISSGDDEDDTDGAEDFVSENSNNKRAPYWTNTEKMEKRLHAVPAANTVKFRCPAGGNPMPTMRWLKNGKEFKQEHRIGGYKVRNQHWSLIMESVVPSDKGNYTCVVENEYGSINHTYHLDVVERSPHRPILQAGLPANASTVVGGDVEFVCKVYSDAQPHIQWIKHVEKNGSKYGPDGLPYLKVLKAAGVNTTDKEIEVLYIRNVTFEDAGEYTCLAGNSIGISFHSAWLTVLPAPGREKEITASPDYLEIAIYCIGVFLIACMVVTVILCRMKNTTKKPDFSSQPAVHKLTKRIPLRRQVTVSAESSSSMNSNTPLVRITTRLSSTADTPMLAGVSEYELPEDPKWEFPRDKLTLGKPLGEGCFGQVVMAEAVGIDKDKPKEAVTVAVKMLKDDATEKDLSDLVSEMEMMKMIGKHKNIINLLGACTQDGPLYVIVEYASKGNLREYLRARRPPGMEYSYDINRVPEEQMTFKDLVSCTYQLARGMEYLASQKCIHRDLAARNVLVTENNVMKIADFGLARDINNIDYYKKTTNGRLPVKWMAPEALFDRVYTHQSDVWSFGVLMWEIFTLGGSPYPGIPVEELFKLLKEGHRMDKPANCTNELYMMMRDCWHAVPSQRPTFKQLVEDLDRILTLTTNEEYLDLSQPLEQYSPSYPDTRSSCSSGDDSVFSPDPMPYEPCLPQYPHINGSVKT
Description: (§1) The inhibitor potency of the exemplified compounds was determined in an enzyme discontinuous assay that measures peptide phosphorylation using FRET measurements to detect product formation. Inhibitors were serially diluted in DMSO and a volume of 0.2 μL was transferred to the wells of a 384-well plate. For the isoforms of FGFR (−1, −2, −3 wild-type and mutant isoforms, −4) including phosphorylated (P) and un-phosphorylated (UP) proteins, a 5 μL/well volume of enzyme diluted in assay buffer (50 mM HEPES, 10 mM MgCl2, 1 mM EGTA, 0.01% Tween-20, 5 mM DTT, pH 7.5) was added to the plate and pre-incubated with inhibitor for 5 to 15 minutes at ambient temperature. Appropriate controls (enzyme blank and enzyme with no inhibitor) were included on the plate. The reaction was initiated by the addition of a 5 μL/well volume containing both biotinylated [sequence] […] The plate was allowed to equilibrate for −10 minutes at ambient temperature before scanning on a PheraStar plate reader (BMG Labtech) instrument.
(§2) Either GraphPad prism or XLfit was used to analyze the data. The IC50 values were derived by fitting the data to a four parameter logistic equation producing a sigmoidal dose-response curve with a variable Hill coefficient. Prism equation: Y=Bottom+(Top−Bottom)/(1+10^((LogIC50−X)*Hill slope)); XLfit equation: Y=(A+((B−A)/(1+((X/C)^D)))) where X is the logarithm of inhibitor concentration and Y is the response.

FGFR3 (UP) = FGFR3 (UP) (Homo sapiens (Human), UniProt P22607); assay: FGFR Enzymatic Assay, FGFR3 un-phosphorylated
Chain of FGFR3 (UP) (P22607 23-806): as the sequence (P22607 23-806 limits assumed) above
Description: as §1, §2

FGFR1 (UP) = FGFR1 (UP) (Homo sapiens (Human), UniProt P11362); assay: FGFR Enzymatic Assay, FGFR1 un-phosphorylated
Chain of FGFR1 (UP) (P11362 22-822): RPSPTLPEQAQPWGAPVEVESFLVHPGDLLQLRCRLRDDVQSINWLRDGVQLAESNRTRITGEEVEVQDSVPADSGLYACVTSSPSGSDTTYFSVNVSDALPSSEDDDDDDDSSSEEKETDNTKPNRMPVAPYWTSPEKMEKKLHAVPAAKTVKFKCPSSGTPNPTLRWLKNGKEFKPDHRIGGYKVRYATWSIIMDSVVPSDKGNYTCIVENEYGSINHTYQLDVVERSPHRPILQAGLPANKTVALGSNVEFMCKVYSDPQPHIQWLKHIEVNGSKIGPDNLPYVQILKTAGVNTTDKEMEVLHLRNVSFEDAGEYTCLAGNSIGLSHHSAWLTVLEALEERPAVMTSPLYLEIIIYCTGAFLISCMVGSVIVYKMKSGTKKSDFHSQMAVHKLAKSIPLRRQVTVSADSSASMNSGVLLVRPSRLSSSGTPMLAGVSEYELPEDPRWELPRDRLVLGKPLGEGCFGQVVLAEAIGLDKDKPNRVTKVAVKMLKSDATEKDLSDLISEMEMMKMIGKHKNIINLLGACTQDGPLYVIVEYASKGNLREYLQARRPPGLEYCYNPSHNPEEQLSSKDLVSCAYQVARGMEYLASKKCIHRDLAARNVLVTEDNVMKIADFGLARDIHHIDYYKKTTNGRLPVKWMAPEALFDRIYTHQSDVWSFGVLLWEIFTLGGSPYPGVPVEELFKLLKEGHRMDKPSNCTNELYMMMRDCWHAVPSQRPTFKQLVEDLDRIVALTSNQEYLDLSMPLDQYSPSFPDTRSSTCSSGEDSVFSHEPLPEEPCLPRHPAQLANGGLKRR
Description: as §1, §2

FGFR2 (UP) = FGFR2 (UP) (Homo sapiens (Human), UniProt P21802); assay: FGFR Enzymatic Assay, FGFR2 un-phosphorylated
Chain of FGFR2 (UP) (P21802 22-821): as the sequence (P21802 22-821) above
Description: as §1, §2

RT112 cells = assay: Luminescent Viability Assay (LVA, FGFR3); type: cell-based; conditions: Homo sapiens, RT-112, 72 h, 3 days, CellTiter-Glo
Description: RT112 cells were purchased from ATCC (Manassas, Va.) and maintained in RPMI, 10% FBS (Gibco/Life Technologies). To measure the effect of test compounds on the viability of cells, the cells were plated with RPMI 10% FBS (5×10^3 cells/well/in 50 μL) into black 96-well Greiner polystyrene in the presence or absence of 50 μl of a concentration range of test compounds. After 3 days, 100 μl of CellTiter-Glo Reagent (Promega) was added. Luminescence was read with a TopCount (PerkinElmer). IC50 determination was performed by fitting the curve of percent inhibition versus the log of the inhibitor concentration using the GraphPad Prism 5.0 software.

ALK2 = ALK2 (Homo sapiens (Human), UniProt Q04771); assay: ALK2 Cellular Assay (phospho SMAD1 HTRF, BMP-7 stimulated HeLa cells); type: cell-based; conditions: read-out: ALK2 Cellular Assay PSMAD
Chain of ALK2 (Q04771 21-509): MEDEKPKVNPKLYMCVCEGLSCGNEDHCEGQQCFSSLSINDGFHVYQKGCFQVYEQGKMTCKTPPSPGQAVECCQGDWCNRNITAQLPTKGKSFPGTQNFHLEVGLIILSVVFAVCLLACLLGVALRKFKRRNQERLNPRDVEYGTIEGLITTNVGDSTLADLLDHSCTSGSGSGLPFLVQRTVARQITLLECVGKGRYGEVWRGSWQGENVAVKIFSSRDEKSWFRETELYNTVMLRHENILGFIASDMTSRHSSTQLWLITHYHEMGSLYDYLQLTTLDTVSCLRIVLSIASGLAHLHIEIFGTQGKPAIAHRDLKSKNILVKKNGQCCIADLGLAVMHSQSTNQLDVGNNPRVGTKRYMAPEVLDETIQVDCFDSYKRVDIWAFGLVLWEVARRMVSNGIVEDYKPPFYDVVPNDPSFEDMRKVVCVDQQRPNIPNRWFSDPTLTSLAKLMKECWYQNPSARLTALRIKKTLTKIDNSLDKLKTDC
Outline: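 HeLa cells pre-treated with compound (highest final 3 μM) for 60 min at 37° C, then stimulated with 200 ng/ml BMP-7 for 30 min. Phospho-SMAD1 (S463/S465) quantified by HTRF after overnight room-temperature incubation.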

FGFR2 = FGFR2 (Homo sapiens, UniProt P21802); assay: pFGFR2 Functional Cell HTRF Assay (KATOIII cells); type: cell-based
Chain of FGFR2 (P21802 22-821 limits assumed): as the sequence (P21802 22-821) above
Description: To measure phosphorylated Fibroblast Growth Factor Receptor 2 (FGFR2), KATOIII cells (Human Gastric Carcinoma) were purchased from ATCC and maintained in Iscove's with 20% FBS (Gibco/Life Technologies). For the pFGFR2 assay, KATOIII cells were plated overnight in 5% FBS and Iscove's medium at 5×10^4 cells/well into Corning 96-well flat-bottom tissue culture treated plates. The next morning, 50 μl of fresh media with 0.5% FBS was incubated in the presence or absence of a concentration range of test compounds also at 50 μl, for 1 hour at 37° C., 5% CO2. Cell were washed with PBS, and lysed with Cell Signaling Lysis Buffer with standard Protease inhibitors for 45 min at room temperature. 4 μl total of Cis Bio Anti […] together were added to the lysate and mixed well (following directions of the kit). 16 μl was then transferred to 384 well Greiner white plates and stored at 4° C. overnight in the dark. Plates were read on the Pherastar plate reader at 665 nm and 620 nm wavelengths. IC50 determination was performed by fitting the curve of inhibitor percent inhibition versus the log of the inhibitor concentration using the GraphPad Prism 5.0 software. […] NT=Not tested.

[1] = read-out: FGFR3 (UP) IC50, un-phosphorylated enzyme, ATP near or below Km
[2] = read-out: FGFR1 (UP) IC50, un-phosphorylated enzyme, ATP near or below Km
[3] = read-out: FGFR2 (UP) IC50, un-phosphorylated enzyme, ATP near or below Km
[4] = read-out: ALK2 3 μM IC50, 3 uM ATP
[5] = read-out: ALK2 100 μM IC50, 100 uM ATP
[6] = HeLa cells, 200 ng/ml BMP-7, Phospho SMAD1 (S463/S465) HTRF
[7] = read-out: ALK2 1 mM IC50, 1 mM ATP

Chain of ALK2 (aa 147-end) (Q04771 147-509): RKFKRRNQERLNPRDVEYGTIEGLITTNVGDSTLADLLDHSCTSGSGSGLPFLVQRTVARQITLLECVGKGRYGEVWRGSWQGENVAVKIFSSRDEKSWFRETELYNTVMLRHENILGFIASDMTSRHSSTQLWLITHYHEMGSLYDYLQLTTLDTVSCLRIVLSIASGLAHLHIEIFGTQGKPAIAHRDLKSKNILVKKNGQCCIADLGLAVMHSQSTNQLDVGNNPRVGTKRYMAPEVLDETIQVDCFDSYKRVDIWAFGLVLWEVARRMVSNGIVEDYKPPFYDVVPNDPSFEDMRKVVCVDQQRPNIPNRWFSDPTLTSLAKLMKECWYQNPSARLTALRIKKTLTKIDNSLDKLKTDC

Row | SMILES | pIC50 (FGFR3) | pIC50 (FGFR2 (P)) | pIC50 (FGFR3 (UP); [1]) | pIC50 (ALK2 (aa 147-end); [4]) | pIC50 (ALK2 (aa 147-end); [5]) | pIC50 (ALK2; [6]) | pIC50 (FGFR3 (UP)) | pIC50 (FGFR2 (UP)) | pIC50 (FGFR1 (UP)) | also measured
1 | CN(C)C(=O)c1ccc(-n2cc(-c3n[nH]c4cnc(N5C6CCC5C(=O)N(C)C6)nc34)cn2)cc1 (stereo not drawn) [Example 79, N,N-Dimethyl-4-(4-(5-(3-methyl-2-oxo-3,8-diazabicyclo[3.2.1]octan-8-yl)-1H-pyrazolo[4,3-d]pyrimidin-3-yl)-1H-pyrazol-1-yl)benzamide] | > 7.00 | > 7.00 | > 7.00 |  |  |  |  |  |  | pIC50 (ALK2 (aa 147-end); ALK2 3 μM IC50, 3 uM ATP): 6.30 to 7.00; pIC50 (ALK2 (aa 147-end); ALK2 100 μM IC50, 100 uM ATP): 5.70 to 6.30; pIC50 (FGFR1 (UP); [2]): > 7.00; pIC50 (FGFR2 (UP); [3]): > 7.00
2 | CNC(=O)c1ccc(-n2cc(-c3n[nH]c4cnc(N5C6CCC5C(=O)N(C)C6)nc34)cn2)cc1 (stereo not drawn) [Example 80, N-Methyl-4-(4-(5-(3-methyl-2-oxo-3,8-diazabicyclo[3.2.1]octan-8-yl)-1H-pyrazolo[4,3-d]pyrimidin-3-yl)-1H-pyrazol-1-yl)benzamide] |  | > 7.00 | > 7.00 |  |  |  |  |  |  | pIC50 (RT112 cells): 5.70 to 6.30; pIC50 (FGFR1 (UP); [2]): > 7.00; pIC50 (FGFR2 (UP); [3]): > 7.00
3 | COC(=O)N1C[C@@H](C)N(c2ncc3[nH]nc(-c4ccc(N5CCO[C@H](C)C5)nc4)c3n2)[C@@H](C)C1 [Example 32, Methyl (3R,5S)-3,5-dimethyl-4-(3-(6-((R)-2-methylmorpholino)pyridin-3-yl)-1H-pyrazolo[4,3-d]pyrimidin-5-yl)piperazine-1-carboxylate] |  |  |  | > 7.00 | > 7.00 | 6.30 to 7.00 | 6.30 to 7.00 | 5.70 to 6.30 |  | pIC50 (ALK2 (aa 147-end); ALK2 1 mM IC50, 1 mM ATP): 6.30 to 7.00; pIC50 (FGFR1 (UP); [2]): < 5.70
4 | CCOC(=O)N1C[C@@H](C)N(c2ncc3[nH]nc(-c4ccc(N5CCN[C@H](C)C5)nc4)c3n2)[C@@H](C)C1 [Example 11, Ethyl (3R,5S)-3,5-dimethyl-4-(3-(6-((R)-3-methylpiperazin-1-yl)pyridin-3-yl)-1H-pyrazolo[4,3-d]pyrimidin-5-yl)piperazine-1-carboxylate] |  |  |  | > 7.00 | > 7.00 | 6.30 to 7.00 | 5.70 to 6.30 | 5.70 to 6.30 | 5.70 to 6.30 | pIC50 (ALK2 (aa 147-end); [7]): > 7.00
5 | CN1CC2CCC(C1=O)N2c1ncc2[nH]nc(-c3cnn(C4CC4)c3)c2n1 (single isomer, unassigned) [Example 66, 8-(3-(1-Cyclopropyl-1H-pyrazol-4-yl)-1H-pyrazolo[4,3-d]pyrimidin-5-yl)-3-methyl-3,8-diazabicyclo[3.2.1]octan-2-one] |  |  |  |  |  |  |  |  |  | pIC50 (FGFR2; read-out: FGFR2 HTRF IC50, 1 hour): > 7.00
6 | CCn1cc(-c2n[nH]c3cnc(N4C5CCC4C(=O)N(C)C5)nc23)cn1 (stereo not drawn) [Example 61, 8-(3-(1-Ethyl-1H-pyrazol-4-yl)-1H-pyrazolo[4,3-d]pyrimidin-5-yl)-3-methyl-3,8-diazabicyclo[3.2.1]octan-2-one] | > 7.00 | > 7.00 | > 7.00 |  |  |  |  |  | 6.30 to 7.00 | pIC50 (ALK2 (aa 147-end); ALK2 3 μM IC50, 3 uM ATP): 5.70 to 6.30; pIC50 (ALK2 (aa 147-end); ALK2 100 μM IC50, 100 uM ATP): 5.70 to 6.30; pIC50 (RT112 cells): 6.30 to 7.00
7 | CN1CC2CCC(C1=O)N2c1ncc2[nH]nc(-c3cnn(C4CCC4)c3)c2n1 (single isomer, unassigned) [Example 64, 8-(3-(1-Cyclobutyl-1H-pyrazol-4-yl)-1H-pyrazolo[4,3-d]pyrimidin-5-yl)-3-methyl-3,8-diazabicyclo[3.2.1]octan-2-one] |  | > 7.00 |  |  |  |  |  |  |  | pIC50 (ALK2 (aa 147-end); ALK2 3 μM IC50, 3 uM ATP): 6.30 to 7.00; pIC50 (ALK2 (aa 147-end); ALK2 100 μM IC50, 100 uM ATP): 5.70 to 6.30; pIC50 (FGFR2; 1 hour, read-out: FGFR2 HTRF IC50): > 7.00; pIC50 (FGFR2 (UP); [3]): > 7.00
8 | CC(C)n1cc(-c2n[nH]c3cnc(N4C5CCC4C(=O)N(C)C5)nc23)cn1 (stereo not drawn) [Example 62, 8-(3-(1-Isopropyl-1H-pyrazol-4-yl)-1H-pyrazolo[4,3-d]pyrimidin-5-yl)-3-methyl-3,8-diazabicyclo[3.2.1]octan-2-one] | 6.30 to 7.00 | > 7.00 | > 7.00 |  |  |  |  |  | 6.30 to 7.00 | pIC50 (RT112 cells): 6.30 to 7.00
9 | CNC(=O)c1ccc(-n2cc(-c3n[nH]c4cnc(N5C6CCC5C(=O)N(C)C6)nc34)cn2)cn1 (stereo not drawn) [Example 82, N-Methyl-5-(4-(5-(3-methyl-2-oxo-3,8-diazabicyclo[3.2.1]octan-8-yl)-1H-pyrazolo[4,3-d]pyrimidin-3-yl)-1H-pyrazol-1-yl)picolinamide] | 6.30 to 7.00 | > 7.00 | > 7.00 |  |  |  |  |  |  | pIC50 (ALK2 (aa 147-end); ALK2 3 μM IC50, 3 uM ATP): 5.70 to 6.30; pIC50 (ALK2 (aa 147-end); ALK2 100 μM IC50, 100 uM ATP): 5.70 to 6.30; pIC50 (FGFR1 (UP); [2]): > 7.00
10 | CN1CC2CCC(C1=O)N2c1ncc2[nH]nc(-c3cnn(CC(F)(F)F)c3)c2n1 (stereo not drawn) [Example 67, 3-Methyl-8-(3-(1-(2,2,2-trifluoroethyl)-1H-pyrazol-4-yl)-1H-pyrazolo[4,3-d]pyrimidin-5-yl)-3,8-diazabicyclo[3.2.1]octan-2-one] | 6.30 to 7.00 |  | > 7.00 |  |  |  |  |  | 6.30 to 7.00 | IC50 (FGFR2 (P); FGFR2 (P) IC50 (nM)): 100 to 500 nM
11 | C[C@@H]1CCC[C@H](C)N1c1ncc2[nH]nc(-c3ccc(N4CCN(C)CC4)cc3)c2n1 [Example 16, 5-((2R,6S)-2,6-Dimethylpiperidin-1-yl)-3-(4-(4-methylpiperazin-1-yl)phenyl)-1H-pyrazolo[4,3-d]pyrimidine] |  |  |  | > 7.00 |  | 5.70 to 6.30 | 6.30 to 7.00 | 6.30 to 7.00 | 6.30 to 7.00 | pIC50 (ALK2 (aa 147-end); ALK2 1 mM IC50, 1 mM ATP): 6.30 to 7.00
12 | COC(=O)N1C[C@@H](C)N(c2ncc3[nH]nc(-c4ccc(N5CCN(C)CC5)c(F)c4)c3n2)[C@@H](C)C1 [Example 23, Methyl (3R,5S)-4-(3-(3-fluoro-4-(4-methylpiperazin-1-yl)phenyl)-1H-pyrazolo[4,3-d]pyrimidin-5-yl)-3,5-dimethylpiperazine-1-carboxylate] |  |  |  | > 7.00 | > 7.00 | 6.30 to 7.00 | 6.30 to 7.00 | 6.30 to 7.00 | 6.30 to 7.00 | pIC50 (ALK2 (aa 147-end); ALK2 1 mM IC50, 1 mM ATP): 6.30 to 7.00
13 | C[C@@H]1CN(c2ccc(-c3n[nH]c4cnc(N5[C@@H]6CC[C@H]5CN(C(=O)C5CC5)C6)nc34)cn2)CCN1 [Example 13, Cyclopropyl((1R,5S)-8-(3-(6-((R)-3-methylpiperazin-1-yl)pyridin-3-yl)-1H-pyrazolo[4,3-d]pyrimidin-5-yl)-3,8-diazabicyclo[3.2.1]octan-3-yl)methanone] |  |  |  | > 7.00 | > 7.00 |  | 6.30 to 7.00 | 6.30 to 7.00 | 5.70 to 6.30 | pIC50 (ALK2 (aa 147-end); ALK2 1 mM IC50, 1 mM ATP): 6.30 to 7.00; pIC50 (ALK2): 6.30 to 7.00
14 | C[C@@H]1CN(c2ccc(-c3n[nH]c4cnc(N5[C@H](C)CN(C(=O)N6CCC(F)C6)C[C@@H]5C)nc34)cn2)CCN1 (stereo partly drawn) [Example 10, ((3R,5S)-3,5-Dimethyl-4-(3-(6-((R)-3-methylpiperazin-1-yl)pyridin-3-yl)-1H-pyrazolo[4,3-d]pyrimidin-5-yl)piperazin-1-yl)(3-fluoropyrrolidin-1-yl)methanone] |  |  |  | > 7.00 | > 7.00 | > 7.00 | 5.70 to 6.30 | 5.70 to 6.30 | 5.70 to 6.30 | pIC50 (ALK2 (aa 147-end); [7]): > 7.00
